pKi: −log10 of the molar value.
Assays:
[1] = target: 5-hydroxytryptamine receptor 3A (Homo sapiens, UniProt P46098); assay: Binding affinity to 5HT3 receptor (unknown origin) assessed as inhibition constant
[2] = target: T1, Beta-1 adrenergic receptor (Homo sapiens, UniProt P08588); assay: Binding affinity to beta1 receptor (unknown origin) assessed as inhibition constant
Target sequence in this assay (P08588 whole entry): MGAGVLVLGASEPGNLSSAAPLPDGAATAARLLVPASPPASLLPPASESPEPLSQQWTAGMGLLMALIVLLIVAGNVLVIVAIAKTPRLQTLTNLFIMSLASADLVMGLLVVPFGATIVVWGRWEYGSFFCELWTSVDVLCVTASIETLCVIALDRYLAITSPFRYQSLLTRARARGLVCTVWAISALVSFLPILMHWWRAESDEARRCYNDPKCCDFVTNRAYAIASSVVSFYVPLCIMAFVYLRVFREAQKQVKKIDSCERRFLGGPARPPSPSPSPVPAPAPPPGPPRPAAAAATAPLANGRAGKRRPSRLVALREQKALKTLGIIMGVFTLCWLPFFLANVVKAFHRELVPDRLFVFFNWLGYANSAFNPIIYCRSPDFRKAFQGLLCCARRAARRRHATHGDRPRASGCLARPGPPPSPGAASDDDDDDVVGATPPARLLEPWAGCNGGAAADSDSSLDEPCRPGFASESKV

[3] = target: D(3) dopamine receptor (Homo sapiens, UniProt P35462); assay: Binding affinity to D3 receptor (unknown origin) assessed as inhibition constant
[4] = target: Sodium-dependent serotonin transporter (Homo sapiens, UniProt P31645); assay: Binding affinity to SERT receptor (unknown origin) assessed as inhibition constant
[5] = target: T1, Beta-1 adrenergic receptor; assay: Inhibition of beta1 receptor (unknown origin); settings: concentration not given here
Target sequence in this assay (P08588 whole entry, looked up): as the sequence (P08588 whole entry) above

[6] = target: Sigma non-opioid intracellular receptor 1 (Homo sapiens, UniProt Q99720); assay: Inhibition of sigma 1 receptor (unknown origin); settings: concentration not given here
[7] = target: 5-hydroxytryptamine receptor 3A (Homo sapiens) (UniProt P46098); assay: Inhibition of 5HT3 receptor (unknown origin); settings: concentration not given here
[8] = target: Sigma intracellular receptor 2 (Homo sapiens, UniProt Q5BJF2); assay: Binding affinity to sigma 2 receptor (unknown origin) assessed as inhibition constant
[9] = target: Alpha-2C adrenergic receptor (Homo sapiens, UniProt P18825); assay: Binding affinity to alpha2c (unknown origin) assessed as inhibition constant
[10] = target: 5-hydroxytryptamine receptor 1E (Homo sapiens, UniProt P28566); assay: Inhibition of 5HT1E receptor (unknown origin); settings: concentration not given here
[11] = target: 5-hydroxytryptamine receptor 1B (Homo sapiens, UniProt P28222); assay: Inhibition of 5HT1B receptor (unknown origin); settings: concentration not given here
Chain of 5-hydroxytryptamine receptor 1B (P28222 whole entry): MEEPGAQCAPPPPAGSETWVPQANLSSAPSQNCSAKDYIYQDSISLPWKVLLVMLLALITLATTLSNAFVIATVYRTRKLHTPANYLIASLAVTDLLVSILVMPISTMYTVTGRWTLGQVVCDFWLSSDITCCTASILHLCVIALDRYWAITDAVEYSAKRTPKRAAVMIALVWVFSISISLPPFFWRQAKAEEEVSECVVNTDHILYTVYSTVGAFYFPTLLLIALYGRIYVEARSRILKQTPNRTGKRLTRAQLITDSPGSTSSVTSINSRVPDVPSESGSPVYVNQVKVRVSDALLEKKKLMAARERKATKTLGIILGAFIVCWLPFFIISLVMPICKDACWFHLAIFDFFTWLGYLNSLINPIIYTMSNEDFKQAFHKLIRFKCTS

Chain of 5-hydroxytryptamine receptor 3A (Homo sapiens) (P46098 whole entry): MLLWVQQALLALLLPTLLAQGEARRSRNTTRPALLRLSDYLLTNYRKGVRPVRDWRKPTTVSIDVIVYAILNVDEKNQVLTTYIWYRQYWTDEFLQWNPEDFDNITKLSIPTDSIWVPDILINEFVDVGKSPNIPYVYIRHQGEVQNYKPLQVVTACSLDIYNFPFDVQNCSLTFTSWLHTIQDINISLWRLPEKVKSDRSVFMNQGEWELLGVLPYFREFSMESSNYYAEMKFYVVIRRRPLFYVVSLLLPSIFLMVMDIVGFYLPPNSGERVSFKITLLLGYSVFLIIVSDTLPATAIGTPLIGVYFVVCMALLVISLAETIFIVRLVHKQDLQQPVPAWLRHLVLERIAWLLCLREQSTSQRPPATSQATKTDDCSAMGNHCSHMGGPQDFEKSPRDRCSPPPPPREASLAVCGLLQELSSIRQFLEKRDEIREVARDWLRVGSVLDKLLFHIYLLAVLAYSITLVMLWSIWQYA
Chain of 5-hydroxytryptamine receptor 3A (P46098 whole entry): as above
Chain of Sigma intracellular receptor 2 (Q5BJF2 whole entry): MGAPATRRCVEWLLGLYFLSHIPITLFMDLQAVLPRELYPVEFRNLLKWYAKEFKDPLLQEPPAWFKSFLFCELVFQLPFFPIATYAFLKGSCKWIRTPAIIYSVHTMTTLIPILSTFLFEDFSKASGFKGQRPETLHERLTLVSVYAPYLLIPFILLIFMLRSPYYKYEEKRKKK
Chain of 5-hydroxytryptamine receptor 1E (P28566 whole entry): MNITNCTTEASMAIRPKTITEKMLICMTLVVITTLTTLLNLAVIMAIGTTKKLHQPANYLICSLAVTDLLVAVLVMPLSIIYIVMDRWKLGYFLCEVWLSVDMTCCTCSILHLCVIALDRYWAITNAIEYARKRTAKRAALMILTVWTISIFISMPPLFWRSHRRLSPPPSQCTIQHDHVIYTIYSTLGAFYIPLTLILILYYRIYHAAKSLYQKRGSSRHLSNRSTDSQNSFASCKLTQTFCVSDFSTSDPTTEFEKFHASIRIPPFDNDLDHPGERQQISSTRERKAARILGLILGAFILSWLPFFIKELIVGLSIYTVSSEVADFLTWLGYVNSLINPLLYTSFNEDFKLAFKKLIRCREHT
Chain of Sigma non-opioid intracellular receptor 1 (Q99720 whole entry): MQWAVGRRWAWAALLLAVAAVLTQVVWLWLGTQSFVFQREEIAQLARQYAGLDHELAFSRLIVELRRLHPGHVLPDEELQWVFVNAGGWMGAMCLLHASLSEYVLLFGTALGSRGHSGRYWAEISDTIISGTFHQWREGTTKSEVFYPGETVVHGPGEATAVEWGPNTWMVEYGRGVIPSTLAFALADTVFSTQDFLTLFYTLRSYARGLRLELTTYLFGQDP
Chain of Alpha-2C adrenergic receptor (P18825 whole entry): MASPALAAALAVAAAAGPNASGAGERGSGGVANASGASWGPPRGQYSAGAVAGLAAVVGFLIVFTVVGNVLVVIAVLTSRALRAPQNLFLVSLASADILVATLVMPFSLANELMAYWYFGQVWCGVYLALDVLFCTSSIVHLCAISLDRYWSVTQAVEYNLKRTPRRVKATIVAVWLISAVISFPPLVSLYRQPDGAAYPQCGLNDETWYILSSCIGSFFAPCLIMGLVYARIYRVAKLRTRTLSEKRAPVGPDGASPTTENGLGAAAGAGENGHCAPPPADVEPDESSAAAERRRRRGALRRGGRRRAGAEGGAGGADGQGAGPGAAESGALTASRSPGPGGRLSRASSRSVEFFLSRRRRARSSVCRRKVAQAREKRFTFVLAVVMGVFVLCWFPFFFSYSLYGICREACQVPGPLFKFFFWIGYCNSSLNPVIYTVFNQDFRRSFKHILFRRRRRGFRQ
Chain of D(3) dopamine receptor (P35462 whole entry): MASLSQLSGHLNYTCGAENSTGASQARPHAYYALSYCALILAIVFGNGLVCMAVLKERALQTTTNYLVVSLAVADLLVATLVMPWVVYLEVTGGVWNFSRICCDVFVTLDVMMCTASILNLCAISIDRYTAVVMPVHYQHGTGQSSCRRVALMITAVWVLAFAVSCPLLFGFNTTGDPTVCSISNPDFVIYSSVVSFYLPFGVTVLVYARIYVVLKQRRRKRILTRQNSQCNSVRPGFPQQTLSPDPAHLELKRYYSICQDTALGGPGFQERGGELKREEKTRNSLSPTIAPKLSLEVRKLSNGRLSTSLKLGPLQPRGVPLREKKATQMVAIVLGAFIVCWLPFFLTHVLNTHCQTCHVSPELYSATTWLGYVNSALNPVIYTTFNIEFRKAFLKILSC

Row | pKi [1] | pKi [2] | inhibition [5] [%] | inhibition [7] [%] | SMILES | other results
1 | 5.56 | 5.83 | – | – | COc1cc(OC)c(C2NCCc3c2[nH]c2ccc(Cl)cc32)cc1OC (stereo unspecified) | –
2 | 5.55 | – | < 50 | – | COc1ccc(C2NCCc3c2[nH]c2ccc(Cl)cc32)c(O)c1 (stereo unspecified) | pKi [3]: 5.90; inhibition ([4]; filed as agonist, concentration not given here): < 50%
3 | – | – | < 50 | < 50 | COc1ccc(C2NCCc3c2[nH]c2ccc(F)cc32)c(O)c1 (stereo unspecified) | inhibition [6]: < 50%; pKi [4]: 5.73
4 | – | 6.02 | – | < 50 | COc1cc(OC)c(C2NCCc3c2[nH]c2ccc(F)cc32)cc1OC (stereo unspecified) | pKi [8]: 5.63; pKi [9]: 6.02; inhibition [10]: < 50%; inhibition [11]: < 50%
